Test results as given in patent US8778947B2 (Intermune, Inc., priority 2012, dated 2014).
Entries after “also recorded” stand apart in the source; their conditions may differ. Where two headings read alike, the source gives them in different places.

Tests used:
[1] = cited from earlier work
[2] = Phase 1 open-label crossover study: safety (adverse events); type: in vivo, human (healthy subjects)
From the text: The Safety population was defined as subjects who received any amount of pirfenidone or ciprofloxacin.

[3] = molecular target: CYP1A2 (Homo sapiens, UniProt P05177); conditions: in vitro experiments; cited from earlier work
Sequence of CYP1A2 (P05177 whole entry): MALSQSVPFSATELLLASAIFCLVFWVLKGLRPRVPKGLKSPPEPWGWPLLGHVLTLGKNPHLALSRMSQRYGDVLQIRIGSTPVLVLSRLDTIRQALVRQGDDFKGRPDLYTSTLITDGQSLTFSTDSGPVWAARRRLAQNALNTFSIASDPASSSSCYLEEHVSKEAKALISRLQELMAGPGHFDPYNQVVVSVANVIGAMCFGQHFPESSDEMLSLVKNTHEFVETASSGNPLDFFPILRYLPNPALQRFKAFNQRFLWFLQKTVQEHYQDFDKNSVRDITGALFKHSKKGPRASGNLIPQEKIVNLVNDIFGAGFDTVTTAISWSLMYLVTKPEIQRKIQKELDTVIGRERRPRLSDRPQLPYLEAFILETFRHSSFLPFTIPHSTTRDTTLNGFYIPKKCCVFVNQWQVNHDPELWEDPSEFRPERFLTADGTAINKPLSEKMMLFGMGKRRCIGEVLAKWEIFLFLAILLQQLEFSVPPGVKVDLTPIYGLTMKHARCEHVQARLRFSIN

[4] = clinical; conditions: human, in vivo, po; for AUC(0-inf): AUC0-∞
Protocol: 750-mg tablets orally, as follows: • Day 2: 750 mg in the evening • Days 3-6: 750 mg twice a day (BID) • Day 7: 750 mg in the morning.
Both noncompartmental methods and a previously derived population PK (i.e., compartmental) model were used to analyze the plasma concentration-time data and characterize individual subject PK parameters.

[5] = Ciprofloxacin-pirfenidone in vitro-in vivo extrapolation (IVIVE) simulations of pirfenidone AUC change; conditions: from in vitro and in vivo data coupled with IVIVE simulations
From the text: In brief, the process involves combining in vitro knowledge regarding the properties of a potential inhibitor [IC50 values for various cytochrome P450 (CYP) enzymes] with the in vitro knowledge regarding the pathways of metabolism of a given substrate (fraction metabolized by various CYP enzymes).

[6] = Ratio of Day 6/7 (during ciprofloxacin dosing) to Day 1/2 (pre-ciprofloxacin dosing), N = 27
[7] = plasma, single 801 mg oral pirfenidone with food, Study Day 1/2 (Pre-Ciprofloxacin), N = 27
[8] = plasma, single 801 mg oral pirfenidone with food, Study Day 6/7 (During Ciprofloxacin 750 mg BID), N = 27

**Q.** Which “AUC0-∞ Geometric Mean Ratio (90% Confidence Interval)” value [6] does the source give for `O=C(O)c1ccc(=O)n(-c2ccccc2)c1` [5-Carboxy-Pirfenidone, 5-carboxy-pirfenidone] here?
**A.** Its value is 0.96 (0.92, 1.00).

**Q.** And the “Cmax Geometric Mean Ratio (90% Confidence Interval)” value [6]?
**A.** The value was 0.62 (0.57, 0.66).

**Q.** And the “AUC0-∞ Day 6/7 geometric mean lower than on Day 1/2” value (after 801 mg pirfenidone)?
**A.** Its value is 7.7%.

**Q.** What about the “Cmax lower with ciprofloxacin coadministration on Day 6/7 than Day 1/2” value (after 801 mg pirfenidone) of the same molecule?
**A.** The value was 40%.

**Q.** What about the “AUC0-∞, Geometric Mean” value [7] of the same molecule?
**A.** The value was 32600 ng·h/mL.

**Q.** What about the “AUC0-∞, Mean (SD)” value [7] of the same molecule?
**A.** Its value is 30.9 (4.74) μg*hr/mL.

**Q.** And the “AUC0-∞, Median” value [7]?
**A.** The value was 30300 ng·h/mL.

**Q.** What about the “Cmax, Geometric Mean” value [7] of the same molecule?
**A.** The value was 6500 ng/mL.

**Q.** And the “Cmax, Mean (SD)” value [7]?
**A.** Its value is 6.1 (1.44) μg/mL.

**Q.** And the “Cmax, Median” value [7]?
**A.** The value was 5700 ng/mL.

**Q.** And the “T1/2 (apparent terminal elimination half-life), Geometric Mean” value [7]?
**A.** Its value is 2.6 h.

**Q.** What about the “T1/2, Mean (SD)” value [7] of the same molecule?
**A.** The value was 2.7 (0.73) h.

**Q.** What about the “Tmax, Geometric Mean” value [7] of the same molecule?
**A.** The value was 2.2 h.

**Q.** And the “Tmax, Mean (SD)” value [7]?
**A.** Its value is 2.3 (0.6) h.

**Q.** What about the “Tmax, Median” value [7] of the same molecule?
**A.** Its value is 2 h.

**Q.** And the “AUC0-∞, Geometric Mean” value [8]?
**A.** The value was 30100 ng·h/mL.

**Q.** And the “AUC0-∞, Mean (SD)” value [8]?
**A.** The value was 29.6 (4.52) μg*hr/mL.

**Q.** And the “AUC0-∞, Median” value [8]?
**A.** The value was 29100 ng·h/mL.

**Q.** What about the “Cmax, Geometric Mean” value [8] of the same molecule?
**A.** Its value is 3800 ng/mL.

**Q.** What about the “Cmax, Mean (SD)” value [8] of the same molecule?
**A.** Its value is 3.8 (0.8) μg/mL.

**Q.** And the “Cmax, Median” value [8]?
**A.** Its value is 3800 ng/mL.

**Q.** And the “T1/2 (apparent terminal elimination half-life), Geometric Mean” value [8]?
**A.** Its value is 4 h.

**Q.** And the “T1/2, Mean (SD)” value [8]?
**A.** Its value is 4.2 (0.93) h.

**Q.** What about the “T1/2, Median” value [8] of the same molecule?
**A.** The value was 4 h.

**Q.** What about the “Tmax, Geometric Mean” value [8] of the same molecule?
**A.** Its value is 2.1 h.

**Q.** And the “Tmax, Mean (SD)” value [8]?
**A.** Its value is 2 (0.76) h.

**Q.** What about the “Tmax, Median” value [8] of the same molecule?
**A.** The value was 2 h.

**Q.** And the “T1/2 (apparent terminal elimination half-life), Geometric Mean” value (plasma, single 801 mg oral pirfenidone with food, Study Day 6/7 (During Ciprofloxacin 750 mg BID), N = 27, listed as 5-carboxy-pirfenidone)?
**A.** Its value is 4.0 h.

**Q.** For `O=C(O)c1cn(C2CC2)c2cc(N3CCNCC3)c(F)cc2c1=O` [Ciprofloxacin, 1-cyclopropyl-6-fluoro-1,4-dihydro-4-oxo-7-(1-piperazinyl)-3-quinolinecarboxylic acid], which “[I]in, u (free-drug concentration of the inhibitor entering the liver)” value ([1]; Ciprofloxacin 250 mg BID) is on record?
**A.** The value was 52.

**Q.** And the “[I]in, u (free-drug concentration of the inhibitor entering the liver)” value ([1]; Ciprofloxacin 500 mg BID)?
**A.** The value was 52.

**Q.** What about the “[I]in, u (free-drug concentration of the inhibitor entering the liver)” value ([1]; ciprofloxacin 750 mg BID) of the same molecule?
**A.** The value was 78.

**Q.** What does the source list for `Cc1ccc(=O)n(-c2ccccc2)c1` [Pirfenidone, 5-methyl-1-phenyl-2-(1H)-pyridone]?
**A.** subjects whose strongest AE relationship was probably related to pirfenidone ([2]; as assessed by the investigator): 6 subjects; subjects with pirfenidone-related AEs only on Day 6 ([2]; coadministration with ciprofloxacin): 5 subjects; subjects with AEs considered related to pirfenidone on Day 1 ([2]; dosing with pirfenidone only): One; T1/2, Min, Max (human, in vivo, po): 2.8, 5.6; Tmax, Min, Max (human, in vivo, po): 1, 4.1; AUC0-∞, Min, Max (human, in vivo, po, 801 mg): 30, 88.2; Cmax, Min, Max (human, in vivo, po, 801 mg): 6.6, 14.4; T1/2, Min, Max (human, in vivo, po, 801 mg): 1.4, 3.6; Tmax, Min, Max (human, in vivo, po, 801 mg): 1, 3; CYP isoform metabolizing pirfenidone in vitro [3]: primarily metabolized by CYP1A2; also recorded: predominantly carried out by CYP1A2; AUC(0-inf) ([4]; 801 mg, Geometric Mean): 50800 ng·h/mL; AUC(0-inf) ([4]; 801 mg, Mean (SD)): 51900 ng·h/mL; AUC(0-inf) ([4]; 801 mg, Median): 53200 ng·h/mL; Cmax ([4]; 801 mg, Geometric Mean): 10700 ng/mL; Cmax ([4]; 801 mg, Mean (SD)): 10400 ng/mL; Cmax ([4]; 801 mg, Median): 10400 ng/mL; half-life ([4]; 801 mg, T1/2 (apparent terminal elimination half-life), Geometric Mean): 2.4 h; half-life ([4]; 801 mg, T1/2, Mean (SD)): 2.5 h; Tmax ([4]; 801 mg, Geometric Mean): 2.2 h; Tmax ([4]; 801 mg, Mean (SD)): 2.2 h; Tmax ([4]; 801 mg, Median): 2 h; half-life ([4]; T1/2 (apparent terminal elimination half-life), Geometric Mean): 4.1 h; half-life ([4]; T1/2, Mean (SD)): 4 h; half-life ([4]; T1/2, Median): 4 h; Tmax ([4]; Geometric Mean): 2.3 h; Tmax ([4]; Mean (SD)): 2.6 h; Tmax ([4]; Median): 2 h; share of in vivo metabolism of pirfenidone for which CYP1A2 is responsible [5]: 70-80%
